Test results as given in patent publication EP1170007A1, “REMEDIES” (Takara Shuzo Co, Ltd., priority 1999, dated 2000).
Values joined by “and” are separate entries in the source; they are usually repeats but may differ in a detail not shown here. Equal values may be shown once.

What was measured:
[1] = test system: mouse; test: Single oral dose toxicity in mouse; assay type: in vivo; settings: mouse, in vivo, po, 100 mg/kg
[2] = test system: interleukin-12; test: Intraperitoneal interleukin-12 in mice inoculated with Ehrlich cancer cells (ELISA); assay type: in vivo, ddY mouse; settings: for Amount of intraperitoneal interleukin-12: 10 mg/kg intraperitoneally 1 day after inoculation, individual mice
Procedure: ddY mouse (female, 5 weeks old, weighing about 25 g) purchased from Japan SLC was used for experiments after preliminary breeding for 1 week. 1 x 10^6 Ehrlich cancer cells were intraperitoneally inoculated into the mouse. 10 mg/kg of cyclopentenone was intraperitoneally administered 1 day after the inoculation. The mouse was sacrificed by decapitating and exsanguinating 8 or 12 days after the inoculation with cancer cells. 2 ml, which is the same volume as that of ascites retained in the control mouse, of PBS (-) (Nissui Pharmaceutical) containing 1% bovine serum albumin (Sigma) was intraperitoneally injected into the mouse, which was recovered after extensive massage. For a control group, ascites was directly recovered. The recovered ascites and peritoneal lavage fluid were centrifuged at 2000 rpm for 5 minutes to recover supernatants. The supernatants were used to quantify the amounts of interleukin-12 using an ELISA kit for mouse interleukin-12 measurement (Endogen).

[3] = test system: nerve growth factor production by L-M cells; test: Enhancement of nerve growth factor production in L-M cells (enzyme immunoassay); assay type: cell-based, Rat
Procedure: Rat fibroblast L-M cells (ATCC CCL-1.2) were suspended in a M199 medium (Gibco) containing 0.5% Bacto Peptone (Gibco) at a concentration of 1.0 x 10^5 cells/ml. 1 ml of the suspension was inoculated into each well of a 24-well plate. The cells were cultured aseptically. After culturing for 2 days, the medium was removed and substituted with a M199 medium containing 0.5% bovine serum albumin (Sigma). Then, cyclopentenone (final concentration of 1 to 25 µM), 4HCP (Aldrich) (final concentration of 12.5µM) or dipropionylcyclopentenone (final concentration of 3.1 to 9.4 µM) was added thereto. […]
After completion of the incubation, the concentration of nerve growth factor in the culture was measured by enzyme immunoassay (NGF Emax Immuno Assay System: Promega). […]

[4] = test system: human insulin-like growth factor-1 (h-IGF-1) production in Hs68 cells; test: Enhancement of h-IGF-1 production in Hs68 cells (ELISA); assay type: cell-based; settings: Example 3-(2): 10 to 20 µM
Procedure: (1) Human newborn foreskin […] Hs68 cells (ATCC CRL-1635) were cultured in a D-MEM medium (Bio Whittaker) containing 10% fetal calf serum (FBS; Gibco BRL) in the presence of 5% CO2 at 37°C to saturation in a culture vessel. Then, the cells were suspended in the medium at a concentration of 3 x 10^5/ml using a trypsin-EDTA solution (Bio Whittaker). 200 µl of the suspension was dispensed into each well of a 96-well microtiter plate. When the cells were almost saturated in the culture vessel after culturing for 5 days, the medium was discarded and a medium containing 4HCP at a concentration of 40, 100 or 200 µM was added thereto. The culture supernatant was recovered at intervals of 24 hours for up to 96 hours. The effect of 4HCP on enhancement of human insulin-like growth factor-1 (h-IGF-1) production in Hs68 cells was determined using ELISA-Kit for h-IGF-1 (Diagnostic System Labo).
(2) Hs68 cells were cultured in a D-MEM medium containing 10% fetal calf serum in the presence of 5% CO2 at 37°C to saturation in a culture vessel. Then, the cells were suspended in the medium at a concentration of 3 x 10^5/ml using a trypsin-EDTA solution. 200 µl of the suspension was dispensed into each well of a 96-well microtiter plate. When the cells were almost saturated in the culture vessel after culturing for 5 to 7 days, the medium was discarded and the medium containing cyclopentenone or GM at a concentration of 0, 2.5, 5, 10 or 20 µM was added thereto. The culture supernatant was recovered at 1, 3, 6, 12, 24 or 48 hours. The effect of cyclopentenone or GM on the production (enhancement of expression) of h-IGF-1 in Hs68 cells was determined using ELISA-Kit for h-IGF-1. […] The amount of h-IGF-1 produced 6 hours after the addition was about twice the amount for the control with no addition. […] (3) Hs68 cells were cultured in a D-MEM medium containing 10% fetal calf serum in the presence of 5% CO2 at 37°C to saturation in a culture vessel. Then, the cells were suspended in the medium at a concentration of 3 x 10^5/ml using a trypsin-EDTA solution. 200 µl of the suspension was dispensed into each well of a 96-well microtiter plate. When the cells were almost saturated in the culture vessel after culturing for 5 to 7 days, the medium was discarded and the medium containing 4HCP, a compound of formula (XVIII) (4HCP-GSH) or glutathione (GSH) at a concentration of 0, 25, 50, 100 or 200 µM was added thereto. The culture supernatant was recovered at 1, 3, 6, 12, 24 or 48 hours. The effect on the production (enhancement of expression) of h-IGF-1 in Hs68 cells was determined using ELISA-Kit for h-IGF-1. As a result, when 4HCP was added at a concentration of 25 to 200 µM, h-IGF production in Hs68 cells became maximal at 1 hour and decreased thereafter as the time went by. […] Significant enhancement of h-IGF-1 production was observed when cultured for 10 to 30 minutes. […]

## O=C1C=CC(O)C1O (stereo not shown) [cyclopentenone, 4,5-dihydroxy-2-cyclopenten-1-one]
[1]
  death after single oral dose: no example of death was observed
[2]; After 8 Days, control group ND
  Amount of intraperitoneal interleukin-12: 11.0 pg/mL and 100.0 pg/mL and 25.0 pg/mL
[2]; After 12 Days, control group all dead
  Amount of intraperitoneal interleukin-12: 43.0 pg/mL and 97.2 pg/mL and 66.4 pg/mL
[2]; Ehrlich cancer cell inoculated mice
  activity of enhancing interleukin-12 production (result in words): an activity of enhancing interleukin-12 production by cyclopentenone was observed for each mouse
[3]; 1 µM, 24 hours, 0 µM control 0.570
  Nerve growth factor concentration: 0.700 ng/mL
[3]; 2.5 µM, 24 hours, 0 µM control 0.570
  Nerve growth factor concentration: 0.740 ng/mL
[3]; 5 µM, 24 hours, 0 µM control 0.570
  Nerve growth factor concentration: 0.870 ng/mL
[3]; 7.5 µM, 24 hours, 0 µM control 0.570
  Nerve growth factor concentration: 0.900 ng/mL
[3]; 10 µM, 24 hours, 0 µM control 0.570
  Nerve growth factor concentration: 1.080 ng/mL
[3]; 12.5 µM, 24 hours, 0 µM control 0.570
  Nerve growth factor concentration: 1.340 ng/mL
[3]; 15 µM, 24 hours, 0 µM control 0.570
  Nerve growth factor concentration: 1.550 ng/mL
[3]; 17.5 µM, 24 hours, 0 µM control 0.570
  Nerve growth factor concentration: 2.150 ng/mL
[3]; 20 µM, 24 hours, 0 µM control 0.570
  Nerve growth factor concentration: 1.900 ng/mL
[3]; 25 µM, 24 hours, 0 µM control 0.570
  Nerve growth factor concentration: 1.540 ng/mL
[3]; 24 hours incubation
  production of nerve growth factor by L-M cells (result in words): enhanced the production of nerve growth factor by L-M cells in a concentration-dependent manner
[3]; time course: 15 µM, cultivation time 0 hour, control 0.000
  Nerve growth factor concentration: 0.000 ng/mL
[3]; time course: 15 µM, cultivation time 3 hour, control 0.028
  Nerve growth factor concentration: 0.050 ng/mL
[3]; time course: 15 µM, cultivation time 6 hour, control 0.233
  Nerve growth factor concentration: 0.359 ng/mL
[3]; time course: 15 µM, cultivation time 12 hour, control 0.575
  Nerve growth factor concentration: 0.686 ng/mL
[3]; time course: 15 µM, cultivation time 24 hour, control 0.658
  Nerve growth factor concentration: 1.186 ng/mL
[3]; time course: 15 µM, cultivation time 48 hour, control 0.736
  Nerve growth factor concentration: 1.236 ng/mL
[3]; time course: 17.5 µM, cultivation time 0 hour, control 0.000
  Nerve growth factor concentration: 0.000 ng/mL
[3]; time course: 17.5 µM, cultivation time 3 hour, control 0.028
  Nerve growth factor concentration: 0.054 ng/mL
[3]; time course: 17.5 µM, cultivation time 6 hour, control 0.233
  Nerve growth factor concentration: 0.205 ng/mL
[3]; time course: 17.5 µM, cultivation time 12 hour, control 0.575
  Nerve growth factor concentration: 0.635 ng/mL
[3]; time course: 17.5 µM, cultivation time 24 hour, control 0.658
  Nerve growth factor concentration: 1.535 ng/mL
[3]; time course: 17.5 µM, cultivation time 48 hour, control 0.736
  Nerve growth factor concentration: 1.492 ng/mL
[3]; time course: 20 µM, cultivation time 0 hour, control 0.000
  Nerve growth factor concentration: 0.000 ng/mL
[3]; time course: 20 µM, cultivation time 3 hour, control 0.028
  Nerve growth factor concentration: 0.082 ng/mL
[3]; time course: 20 µM, cultivation time 6 hour, control 0.233
  Nerve growth factor concentration: 0.179 ng/mL
[3]; time course: 20 µM, cultivation time 12 hour, control 0.575
  Nerve growth factor concentration: 0.581 ng/mL
[3]; time course: 20 µM, cultivation time 24 hour, control 0.658
  Nerve growth factor concentration: 1.681 ng/mL
[3]; time course: 20 µM, cultivation time 48 hour, control 0.736
  Nerve growth factor concentration: 1.874 ng/mL
[4]
  production of h-IGF-1 in Hs68 cells (result in words): h-IGF-1 production was observed from 1-hour to 6 hours after the addition
